ChEMBL document CHEMBL1147043, “Comparative metabolism of radiolabeled muraglitazar in animals and humans by quantitative and qualitative metabolite profiling” (Drug Metab Dispos, 2007)

Legend:
[1] = system: Plasma; assay: Biodistribution in orally dosed human plasma assessed as muraglitazar glucuronide level after 4 hrs by LC/MS analysis; assay type: ADME, organism-based; conditions: in vivo, po
[2] = system: Rattus norvegicus; assay: Biodistribution in orally dosed Sprague-Dawley rat feces assessed as 17-hydroxy muraglitazar level by LC/MS analysis; assay type: ADME, organism-based; conditions: in vivo, po, pooled result: one value given for 6 cell lines, strains, targets or settings
[3] = Metabolic stability in cynomolgus monkey hepatocytes assessed as 12-hydroxy muraglitazar level by LC/MS analysis relative to control; assay type: ADME, cell-based, Macaca fascicularis, Hepatocyte
[4] = Metabolic stability in cynomolgus monkey hepatocytes assessed as 9-hydroxy-O-demethyl muraglitazar level by LC/MS analysis relative to control; assay type: ADME, cell-based, Macaca fascicularis, Hepatocyte
[5] = system: Plasma; assay: Biodistribution in orally dosed cynomolgus monkey plasma assessed as O-demethyl muraglitazar glucuronide level after 4 hrs by LC/MS analysis; assay type: ADME, organism-based, Macaca fascicularis; conditions: in vivo, po
[6] = Biodistribution in orally dosed Beagle dog feces assessed as 12,17-dihydroxy muraglitazar level by LC/MS analysis; assay type: ADME, organism-based, Canis lupus familiaris; conditions: in vivo, po
[7] = Biodistribution in orally dosed human feces assessed as 8,12-dihydroxy muraglitazar level by LC/MS analysis; assay type: ADME, organism-based; conditions: in vivo, po
[8] = system: Rattus norvegicus; assay: Biodistribution in orally dosed Sprague-Dawley rat urine assessed as 9-hydroxy-O-demethyl muraglitazar level by LC/MS analysis; assay type: ADME, organism-based; conditions: in vivo, po
[9] = Biodistribution in orally dosed Beagle dog urine assessed as O-dealkyl muraglitazar level by LC/MS analysis; assay type: ADME, organism-based, Canis lupus familiaris; conditions: in vivo, po
[10] = system: Rattus norvegicus; assay: Biodistribution in orally dosed Sprague-Dawley rat urine assessed as 8-hydroxy-O-demethyl muraglitazar level by LC/MS analysis; assay type: ADME, organism-based; conditions: in vivo, po
[11] = system: Plasma; assay: Biodistribution in orally dosed Beagle dog plasma assessed as O-Dealkyl muraglitazar level after 4 hrs by LC/MS analysis; assay type: ADME, organism-based, Canis lupus familiaris; conditions: in vivo, po
[12] = Drug concentration in cynomolgus monkey urine at 1.9 mg/kg, po after 12 hrs; assay type: ADME, organism-based, Macaca fascicularis; design: dose 1.9 mg/kg, route oral; conditions: read-out: Drug uptake
[13] = Metabolic stability in cynomolgus monkey hepatocytes assessed as O-Dealkyl muraglitazar level by LC/MS analysis relative to control; assay type: ADME, cell-based, Macaca fascicularis, Hepatocyte
[14] = system: Plasma; assay: Biodistribution in orally dosed Sprague-Dawley rat plasma assessed as 17-hydroxy-O-demethyl muraglitazar level after 12 hrs by LC/MS analysis; assay type: ADME, organism-based; conditions: in vivo, po
[15] = Metabolic stability in CD1 mouse hepatocytes assessed as O-dealkyl-O-demethyl muraglitazar level by LC/MS analysis relative to control; assay type: ADME, cell-based, Hepatocyte
[16] = system: Plasma; assay: Biodistribution in orally dosed cynomolgus monkey plasma assessed as O-demethyl muraglitazar level after 1 hr by LC/MS analysis; assay type: ADME, organism-based, Macaca fascicularis; conditions: in vivo, po
[17] = system: Hepatocyte; assay: Metabolic stability in human hepatocytes assessed as O-demethyl muraglitazar glucuronide level by LC/MS analysis relative to control; assay type: ADME, cell-based
[18] = Bile excretion of compound in bile duct-cannulated orally dosed cynomolgus monkey within 48 hrs; assay type: ADME, organism-based, Macaca fascicularis; conditions: po, read-out: Activity
[19] = system: Hepatocyte; assay: Metabolic stability in Sprague-Dawley rat hepatocytes assessed as O-dealkyl-O-demethyl muraglitazar level by LC/MS analysis relative to control; assay type: ADME, cell-based
[20] = system: Plasma; assay: Biodistribution in orally dosed Beagle dog plasma assessed as O-Dealkyl muraglitazar level after 1 hr by LC/MS analysis; assay type: ADME, organism-based, Canis lupus familiaris; conditions: in vivo, po
[21] = system: Plasma; assay: Biodistribution in orally dosed Beagle dog plasma assessed as 12-dihydroxy muraglitazar level after 12 hrs by LC/MS analysis; assay type: ADME, organism-based, Canis lupus familiaris; conditions: in vivo, po
[22] = system: Canis familiaris; assay: AUC (0 to T) in Beagle dog at 2 mg/kg, po after 4 hrs; assay type: ADME, organism-based, Canis lupus familiaris, Plasma; design: time < 4 hr, dose 2 mg/kg, route oral; conditions: in vivo
[23] = Biodistribution in orally dosed human feces assessed as 8-hydroxy-O-demethyl muraglitazar level by LC/MS analysis; assay type: ADME, organism-based; conditions: in vivo, po
[24] = system: Plasma; assay: Biodistribution in orally dosed cynomolgus monkey plasma assessed as […] muraglitazar level after 1 hr by LC/MS analysis; assay type: ADME, organism-based, Macaca fascicularis; conditions: in vivo, po
[25] = Biodistribution in orally dosed human feces assessed as muraglitazar 12-carboxylic acid level by LC/MS analysis; assay type: ADME, organism-based; conditions: in vivo, po
[26] = system: Plasma; assay: Biodistribution in orally dosed human plasma assessed as 12-dihydroxy muraglitazar level after 12 hrs by LC/MS analysis; assay type: ADME, organism-based; conditions: in vivo, po
[27] = Biodistribution in orally dosed Beagle dog feces assessed as 9-hydroxy muraglitazar level by LC/MS analysis; assay type: ADME, organism-based, Canis lupus familiaris; conditions: in vivo, po
[28] = Metabolic stability in cynomolgus monkey hepatocytes assessed as 9-hydroxy muraglitazar level by LC/MS analysis relative to control; assay type: ADME, cell-based, Macaca fascicularis, Hepatocyte
[29] = system: Hepatocyte; assay: Metabolic stability in Sprague-Dawley rat hepatocytes assessed as O-demethyl muraglitazar glucuronide level by LC/MS analysis relative to control; assay type: ADME, cell-based
[30] = Drug concentration in human feces assessed as recovery of radioactive dose at 10 mg, po after 240 hrs; assay type: ADME, organism-based; conditions: in vivo
[31] = Fecal excretion of compound in bile duct-cannulated orally dosed Sprague-Dawley rat within 24 hrs; assay type: ADME, organism-based; conditions: faeces, po, read-out: Activity
[32] = Biodistribution in orally dosed human urine assessed as 17-hydroxy muraglitazar level by LC/MS analysis; assay type: ADME, organism-based; conditions: in vivo, po
[33] = system: Rattus norvegicus; assay: Biodistribution in orally dosed Sprague-Dawley rat urine assessed as O-dealkyl-O-demethyl muraglitazar level by LC/MS analysis; assay type: ADME, organism-based; conditions: in vivo, po
[34] = Fecal excretion rate in orally dosed Sprague-Dawley rat within 48 hrs; assay type: ADME, organism-based; conditions: faeces, po, read-out: Activity
[35] = Metabolic stability in cynomolgus monkey hepatocytes assessed as muraglitazar 12-carboxylic acid level by LC/MS analysis relative to control; assay type: ADME, cell-based, Macaca fascicularis, Hepatocyte
[36] = Metabolic stability in cynomolgus monkey hepatocytes assessed as muraglitazar glucuronide level by LC/MS analysis relative to control; assay type: ADME, cell-based, Macaca fascicularis, Hepatocyte
[37] = Drug concentration in cynomolgus monkey urine assessed as recovery of radioactive dose at 2 mg/kg, po after 168 hrs; assay type: ADME, organism-based, Macaca fascicularis; design: dose 2 mg/kg, route oral; conditions: in vivo
[38] = Biodistribution in orally dosed Beagle dog feces assessed as O-demethyl muraglitazar level by LC/MS analysis; assay type: ADME, organism-based, Canis lupus familiaris; conditions: in vivo, po
[39] = Metabolic stability in CD1 mouse hepatocytes assessed as 8-hydroxy muraglitazar level by LC/MS analysis relative to control; assay type: ADME, cell-based, Hepatocyte
[40] = Drug concentration in Beagle dog urine at 2 mg/kg, po after 24 hrs; assay type: ADME, organism-based, Canis lupus familiaris; design: dose 2 mg/kg, route oral; conditions: read-out: Drug uptake
[41] = system: Plasma; assay: Biodistribution in orally dosed cynomolgus monkey plasma assessed as 17-hydroxy-O-demethyl muraglitazar level after 4 hrs by LC/MS analysis; assay type: ADME, organism-based, Macaca fascicularis; conditions: in vivo, po
[42] = Tmax in human at 10 mg, po after 72 hrs; assay type: ADME, organism-based; conditions: in vivo
[43] = Metabolic stability in cynomolgus monkey hepatocytes assessed as 17-hydroxy-O-demethyl muraglitazar level by LC/MS analysis relative to control; assay type: ADME, cell-based, Macaca fascicularis, Hepatocyte
[44] = system: Hepatocyte; assay: Metabolic stability in human hepatocytes assessed as O-demethyl muraglitazar level by LC/MS analysis relative to control; assay type: ADME, cell-based
[45] = Biodistribution in orally dosed Beagle dog feces assessed as muraglitazar 12-carboxylic acid level by LC/MS analysis; assay type: ADME, organism-based, Canis lupus familiaris; conditions: in vivo, po
[46] = Metabolic stability in cynomolgus monkey hepatocytes assessed as 12-hydroxy-O-demethyl muraglitazar level by LC/MS analysis relative to control; assay type: ADME, cell-based, Macaca fascicularis, Hepatocyte
[47] = system: Plasma; assay: Biodistribution in orally dosed human plasma assessed as 17-dihydroxy muraglitazar level after 4 hrs by LC/MS analysis; assay type: ADME, organism-based; conditions: in vivo, po
[48] = Biodistribution in orally dosed human urine assessed as 12-hydroxy-O-demethyl muraglitazar level by LC/MS analysis; assay type: ADME, organism-based; conditions: in vivo, po
[49] = Biodistribution in orally dosed human feces assessed as 9-hydroxy muraglitazar level by LC/MS analysis; assay type: ADME, organism-based; conditions: in vivo, po
[50] = Drug concentration in bile duct-cannulated CD1 mouse bile assessed as recovery of radioactive dose at 1 mg/kg, po after 24 hrs; assay type: ADME, organism-based; design: dose 1 mg/kg, route oral; conditions: in vivo
[51] = system: Plasma; assay: Biodistribution in orally dosed Beagle dog plasma assessed as O-demethyl muraglitazar level after 12 hrs by LC/MS analysis; assay type: ADME, organism-based, Canis lupus familiaris; conditions: in vivo, po
[52] = Half life in cynomolgus monkey at 1.9 mg/kg, po after 24 hrs; assay type: ADME, organism-based, Macaca fascicularis; design: dose 1.9 mg/kg, route oral; conditions: in vivo

Which Drug uptake [1] does the source give for `COc1ccc(OC(=O)N(CC(=O)O)Cc2ccc(OCCc3nc(-c4ccccc4)oc3C)cc2)cc1` [MURAGLITAZAR] here?
Its Drug uptake is 4.2%.

What about the Drug uptake [2] of the same compound?
The Drug uptake was 0.88%.

What about the Drug uptake [3] of the same compound?
The Drug uptake was 0.8%.

What about the Drug uptake [4] of the same compound?
Its Drug uptake is 0.5%.

What about the Drug uptake [5] of the same compound?
Its Drug uptake is 0.2%.

And the Drug uptake [6]?
Its Drug uptake is 0.89%.

What about the Drug uptake [7] of the same compound?
The Drug uptake was 2.83%.

What about the Drug uptake [8] of the same compound?
The Drug uptake was 0.43%.

What about the Drug uptake [9] of the same compound?
The Drug uptake was 0.44%.

And the Drug uptake [10]?
The Drug uptake was 0.05%.

And the Drug uptake [11]?
Its Drug uptake is 3%.

What about the dose excreted at 12 h [12] of the same compound?
The dose excreted at 12 h was 1.7%.

What about the Drug uptake [13] of the same compound?
Its Drug uptake is 7.6%.

What about the Drug uptake [14] of the same compound?
Its Drug uptake is < 0.05%.

What about the Drug uptake [15] of the same compound?
The Drug uptake was 5.7%.

What about the Drug uptake [16] of the same compound?
Its Drug uptake is 0.1%.

What about the Drug uptake [17] of the same compound?
Its Drug uptake is < 0.2%.

And the dose excreted at 48 h [18]?
Its dose excreted at 48 h is 36%.

What about the Drug uptake [19] of the same compound?
Its Drug uptake is 0.3%.

And the Drug uptake [20]?
Its Drug uptake is 2%.

What about the Drug uptake [21] of the same compound?
The Drug uptake was 9%.

What about the AUC [22] of the same compound?
Its AUC is 1.1 ugequiv.h/ml.

What about the Drug uptake [23] of the same compound?
The Drug uptake was 0.56%.

And the Drug uptake [24]?
Its Drug uptake is 0.9%.

And the Drug uptake [25]?
The Drug uptake was 0.13%.

And the Drug uptake [26]?
The Drug uptake was 1%.

What about the Drug uptake [27] of the same compound?
Its Drug uptake is 0.85%.

And the Drug uptake [28]?
The Drug uptake was 0.6%.

And the Drug uptake [29]?
The Drug uptake was < 0.2%.

What about the Drug uptake [30] of the same compound?
The Drug uptake was 61.6%.

And the dose excreted at 24 h [31]?
The dose excreted at 24 h was < 1%.

What about the Drug uptake [32] of the same compound?
Its Drug uptake is 0.07%.

And the Drug uptake [33]?
The Drug uptake was 0.21%.

What about the dose excreted at 48 h [34] of the same compound?
The dose excreted at 48 h was 95%.

What about the Drug uptake [35] of the same compound?
The Drug uptake was 13%.

What about the Drug uptake [36] of the same compound?
Its Drug uptake is 1.7%.

What about the Drug uptake [37] of the same compound?
Its Drug uptake is 3.7%.

What about the Drug uptake [38] of the same compound?
Its Drug uptake is 24.92%.

What about the Drug uptake [39] of the same compound?
Its Drug uptake is 0.3%.

And the dose excreted at 24 h [40]?
The dose excreted at 24 h was 0.49%.

And the Drug uptake [41]?
The Drug uptake was < 0.05%.

What about the Tmax [42] of the same compound?
The Tmax was 1 h.

And the Drug uptake [43]?
Its Drug uptake is 11%.

What about the Drug uptake [44] of the same compound?
The Drug uptake was 2.3%.

And the Drug uptake [45]?
The Drug uptake was 0.1%.

What about the Drug uptake [46] of the same compound?
Its Drug uptake is < 0.2%.

And the Drug uptake [47]?
Its Drug uptake is 0.3%.

What about the Drug uptake [48] of the same compound?
The Drug uptake was 0.16%.

And the Drug uptake [49]?
The Drug uptake was 1.6%.

What about the Drug uptake [50] of the same compound?
The Drug uptake was 75%.

And the Drug uptake [51]?
The Drug uptake was 9%.

What about the half-life [52] of the same compound?
Its half-life is 23.5 h.
